This note sets out measurements from patent US20210317134A1, “UBIQUITIN-SPECIFIC-PROCESSING PROTEASE 7 (USP7) MODULATORS AND USES THEREOF” (RAPT THERAPEUTICS, INC., priority 2019, published 2021).

The experiment concerns the target USP7 (Homo sapiens, UniProt Q93009). Put plainly: USP7 inhibitory potency (Table 1). Format: biochemical.

As usually defined, the IC50 is the concentration that inhibits the measured activity by half.

Chain of USP7 (Q93009 whole entry): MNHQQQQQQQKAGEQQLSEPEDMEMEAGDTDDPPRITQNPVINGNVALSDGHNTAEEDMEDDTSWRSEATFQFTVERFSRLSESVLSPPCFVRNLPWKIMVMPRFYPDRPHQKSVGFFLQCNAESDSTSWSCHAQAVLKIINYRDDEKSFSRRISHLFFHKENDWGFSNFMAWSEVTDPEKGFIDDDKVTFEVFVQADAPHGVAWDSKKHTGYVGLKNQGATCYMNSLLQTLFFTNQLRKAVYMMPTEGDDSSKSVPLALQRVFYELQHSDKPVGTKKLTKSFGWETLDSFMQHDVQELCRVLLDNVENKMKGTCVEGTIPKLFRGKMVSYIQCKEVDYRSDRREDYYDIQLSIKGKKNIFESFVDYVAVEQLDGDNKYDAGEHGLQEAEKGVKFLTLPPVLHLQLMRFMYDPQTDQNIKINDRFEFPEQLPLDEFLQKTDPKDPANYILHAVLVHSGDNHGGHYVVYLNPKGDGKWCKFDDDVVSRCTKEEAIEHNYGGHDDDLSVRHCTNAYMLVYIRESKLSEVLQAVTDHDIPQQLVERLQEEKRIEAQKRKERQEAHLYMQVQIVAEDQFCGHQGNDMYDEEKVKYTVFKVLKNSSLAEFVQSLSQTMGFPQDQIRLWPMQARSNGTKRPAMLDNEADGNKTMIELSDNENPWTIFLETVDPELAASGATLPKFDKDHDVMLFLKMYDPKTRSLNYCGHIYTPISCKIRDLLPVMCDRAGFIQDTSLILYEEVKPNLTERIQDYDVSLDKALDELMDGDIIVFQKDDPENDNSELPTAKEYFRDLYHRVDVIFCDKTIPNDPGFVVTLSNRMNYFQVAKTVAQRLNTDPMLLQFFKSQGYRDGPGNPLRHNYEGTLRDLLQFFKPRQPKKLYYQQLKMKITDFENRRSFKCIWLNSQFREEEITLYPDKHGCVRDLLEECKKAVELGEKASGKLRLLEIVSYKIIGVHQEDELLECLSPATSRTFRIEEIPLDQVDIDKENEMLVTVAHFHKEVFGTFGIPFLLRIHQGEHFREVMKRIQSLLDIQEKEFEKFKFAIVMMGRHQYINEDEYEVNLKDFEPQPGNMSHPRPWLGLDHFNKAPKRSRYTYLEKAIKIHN

As to `CCN1CCc2noc([C@H]3Cc4cc(Cl)cc(-c5ccnc6cc(CO)sc56)c4O3)c2C1` [(R)-(7-(5-chloro-2-(5-ethyl-4,5,6,7-tetrahydroisoxazolo[4,3-c]pyridin-3-yl)-2,3-dihydrobenzofuran-7-yl)thieno[3,2-b]pyridin-2-yl)methanol], the IC50 is < 1000 nM. With `O=C([C@H]1Cc2cc(Cl)cc(-c3ccnc4cc(CO)sc34)c2O1)N1CCn2ccnc2C1` [(R)-(5-chloro-7-(2-(hydroxymethyl)thieno[3,2-b]pyridin-7-yl)-2,3-dihydrobenzofuran-2-yl)(5,6-dihydroimidazo[1,2-a]pyrazin-7(8H)-yl)methanone], the IC50 was < 1000 nM.

`O=C(C1Cc2cc(Cl)cc(-c3ccnc(NCc4ccccc4)c3)c2O1)N1CCNCC1` (stereo not drawn) [(7-(2-(benzylamino)pyridin-4-yl)-5-chloro-2,3-dihydrobenzofuran-2-yl)(piperazin-1-yl)methanone] displayed an IC50 of 1000 to 10000 nM. Turning to `CC(=O)NCc1cc2nccc(-c3cc(Cl)cc4c3O[C@@H](C(=O)N3CCNCC3)C4)c2s1` [(R)-N-((7-(5-chloro-2-(piperazine-1-carbonyl)-2,3-dihydrobenzofuran-7-yl)thieno[3,2-b]pyridin-2-yl)methyl)acetamide], the IC50 was < 1000 nM.

`CCCC1(CO)Cc2nccc(-c3cc(Cl)cc4c3O[C@@H](C(=O)N3CCNCC3)C4)c2C1` (stereo partly drawn) [((2R)-5-chloro-7-(6-(hydroxymethyl)-6-propyl-6,7-dihydro-5H-cyclopenta[b]pyridin-4-yl)-2,3-dihydrobenzofuran-2-yl)(piperazin-1-yl)methanone] came in with an IC50 of 1000 to 10000 nM. With `CCC(O)c1cc2nccc(-c3cc(Cl)cc4c3OC(c3onc5c3CN(C(C)C)CC5)C4)c2s1` (stereo not drawn) [1-(7-(5-chloro-2-(5-isopropyl-4,5,6,7-tetrahydroisoxazolo[4,3-c]pyridin-3-yl)-2,3-dihydrobenzofuran-7-yl)thieno[3,2-b]pyridin-2-yl)propan-1-ol], the IC50 is < 1000 nM. The compound `O=C(C1Cc2cc(Cl)cc(-c3ccnc4[nH]ccc34)c2O1)N1CCC(O)(c2ccc(Cl)cc2)CC1` (stereo not drawn) [(5-chloro-7-(1H-pyrrolo[2,3-b]pyridin-4-yl)-2,3-dihydrobenzofuran-2-yl)(4-(4-chlorophenyl)-4-hydroxypiperidin-1-yl)methanone] yielded an IC50 of 1000 to 10000 nM.

`O=C(C1Cc2cc(Cl)cc(-c3ccnc4cc(C(F)(F)F)ccc34)c2O1)N1CCNCC1` (stereo not drawn) [(5-chloro-7-(7-(trifluoromethyl)quinolin-4-yl)-2,3-dihydrobenzofuran-2-yl)(piperazin-1-yl)methanone] registered an IC50 of 1000 to 10000 nM. Next, `O=C(C1Cc2cc(Cl)cc(-c3ccnc4[nH]c(-c5ccccc5)cc34)c2O1)N1CCNCC1` (stereo not drawn) [(5-chloro-7-(2-phenyl-1H-pyrrolo[2,3-b]pyridin-4-yl)-2,3-dihydrobenzofuran-2-yl)(piperazin-1-yl)methanone]: 10000 to 30000 nM. As for `O=C([C@H]1Cc2cc(Cl)cc(-c3ccnc4cc(C(O)(CO)CCl)sc34)c2O1)N1CCNCC1` (stereo partly drawn) [((2R)-5-chloro-7-(2-(1-chloro-2,3-dihydroxypropan-2-yl)thieno[3,2-b]pyridin-7-yl)-2,3-dihydrobenzofuran-2-yl)(piperazin-1-yl)methanone], the IC50 is < 1000 nM. Next, `O=C1CCC(=O)N1Cc1cc2nccc(-c3cc(Cl)cc4c3O[C@@H](c3onc5c3CC(N3CCC3)CC5)C4)c2s1` (stereo partly drawn) [1-((7-((2R)-2-(5-(azetidin-1-yl)-4,5,6,7-tetrahydrobenzo[c]isoxazol-3-yl)-5-chloro-2,3-dihydrobenzofuran-7-yl)thieno[3,2-b]pyridin-2-yl)methyl)pyrrolidine-2,5-dione]: < 1000 nM. On to `N#Cc1cc2c(c(-c3ccnc4cc(CO)sc34)c1)O[C@@H](C(=O)N1CCNCC1)C2` [(R)-7-(2-(hydroxymethyl)thieno[3,2-b]pyridin-7-yl)-2-(piperazine-1-carbonyl)-2,3-dihydrobenzofuran-5-carbonitrile], for which the IC50 is < 1000 nM.
